Values quoted from earlier work, collected in US7491312B2, “Identifying therapeutic compounds based on their physical-chemical properties” (Edison Pharmaceuticals, Inc., priority 2002, dated 2009).

Biological target: amyloid-β fibril formation (Homo sapiens, UniProt P05067)
Details: compounds with an apomorphine core structure (FIG. 8)

Chain of amyloid-β fibril formation (P05067 672-711 limits assumed): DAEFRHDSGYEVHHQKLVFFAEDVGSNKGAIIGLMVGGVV

**Q.** Which “reduction of fibril growth” value does the source give for `CN1CCc2cccc3c2[C@H]1Cc1ccc(O)c(O)c1-3` [apomorphine] here?
**A.** 99%

**Q.** With `COc1ccc2c(c1O)-c1cccc3c1C(C2)N(C)CC3` (centres unmarked) [apocodeine] as the compound, how does the “reduction of fibril growth” value read?
**A.** 5%
